Molecular target: Isoform Bcl-X(L) of Bcl-2-like protein 1 (Bcl-xL) (Homo sapiens, UniProt Q07817)
Assay: Bim-Bcl-XL interaction inhibitors, potency, dose response, biochemical, multiplexed, bead flow cytometry, human Bcl-XL (AID 1322)
Conditions: inactive by the depositor's call; pH 7.4; 4 °C

Isoform Bcl-X(L) of Bcl-2-like protein 1 (Bcl-xL), sequence (Q07817 whole entry G70A, canonical isoform): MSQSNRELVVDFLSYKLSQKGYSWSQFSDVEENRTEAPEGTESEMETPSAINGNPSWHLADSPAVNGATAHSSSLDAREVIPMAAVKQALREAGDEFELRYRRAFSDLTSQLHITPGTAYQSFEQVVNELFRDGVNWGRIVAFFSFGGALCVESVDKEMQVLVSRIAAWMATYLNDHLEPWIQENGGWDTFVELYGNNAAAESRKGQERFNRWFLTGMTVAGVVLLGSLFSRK

First: CCOc1ccccc1-n1c(=O)c2ccccc2c2ccccc2c1=O [6-(2-ethoxyphenyl)-5H-dibenzo[c,e]azepine-5,7(6H)-dione]
Second: O=C1c2ccccc2-c2onc3ccc(NCc4ccco4)c1c23 [MLS000080234]
The EC50 of the first is 2.6-fold higher: 26.5 µM for the first, 10.2 µM for the second. The second is the more potent here.

Compared with `COCCCn1c(N)c(C(=O)Nc2sc3c(c2C(=O)OC)CCCC3)c2nc3ccccc3nc21` [MLS000595323], `O=C(Nc1cccc(Cl)c1)Nc1ccnc(-c2cccnc2)n1` [SMR000337179] is 2.9-fold lower in EC50: 3.32 µM for the first, 1.14 µM for the second. The second is the more potent here.

For `CN1CCN(C2=C(Cl)C(=O)C(c3cnc(N4CCCCC4)s3)=C(Cl)C2=O)CC1`, the EC50 was 1 µM.

Same assay, conditions: pH 7.4; 4 °C

`COc1cccc2c(SCC(=O)NN=Cc3ccc(O)cc3O)cc(C)nc12` [N'-[(E)-(2-hydroxy-4-oxo-1-cyclohexa-2,5-dienylidene)methyl]-2-[(8-methoxy-2-methyl-4-quinolinyl)thio]acetohydrazide] showed an EC50 of 83.6 µM.

Reference: BindingDB's records for doi:10.7270/Q2K935WV (Nmmlsc, 2008)
